Laboratory results published in patent publication US20260125400A1, “TYK2 DEGRADERS AND USES THEREOF” (Kymera Therapeutics, Inc., priority 2023, published 2026).
Read-outs that look alike come from different tables or passages of the source.

Molecular target: T1, TYK2 (Homo sapiens, UniProt P29597)
T1 construct: Degradation of TYK2 in cells was quantitatively measured using Meso Scale Discovery (MSD) technology; endogenous in cells; host or cells: OCI-LY10
Test: TYK2 MSD degradation in OCI-LY10 cells
Type: cell-based
Settings: 4 to 24 hours incubation; for DC50: read-out: TYK2 MSD OCI-LY10 Rel-DC50
Summary of the method: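 OCI-LY10 cells were treated with 9-dose 1:3 series (top 1 to 10 μM final) for 4 to 24 hours at 37° C. Lysate TYK2 quantified by MSD sandwich immunoassay; DC50 and Dmax from four-parameter inhibitor vs. response fit.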

[1] = TYK2 degradation in OCI-LY10 cells

T1 sequence (P29597 whole entry): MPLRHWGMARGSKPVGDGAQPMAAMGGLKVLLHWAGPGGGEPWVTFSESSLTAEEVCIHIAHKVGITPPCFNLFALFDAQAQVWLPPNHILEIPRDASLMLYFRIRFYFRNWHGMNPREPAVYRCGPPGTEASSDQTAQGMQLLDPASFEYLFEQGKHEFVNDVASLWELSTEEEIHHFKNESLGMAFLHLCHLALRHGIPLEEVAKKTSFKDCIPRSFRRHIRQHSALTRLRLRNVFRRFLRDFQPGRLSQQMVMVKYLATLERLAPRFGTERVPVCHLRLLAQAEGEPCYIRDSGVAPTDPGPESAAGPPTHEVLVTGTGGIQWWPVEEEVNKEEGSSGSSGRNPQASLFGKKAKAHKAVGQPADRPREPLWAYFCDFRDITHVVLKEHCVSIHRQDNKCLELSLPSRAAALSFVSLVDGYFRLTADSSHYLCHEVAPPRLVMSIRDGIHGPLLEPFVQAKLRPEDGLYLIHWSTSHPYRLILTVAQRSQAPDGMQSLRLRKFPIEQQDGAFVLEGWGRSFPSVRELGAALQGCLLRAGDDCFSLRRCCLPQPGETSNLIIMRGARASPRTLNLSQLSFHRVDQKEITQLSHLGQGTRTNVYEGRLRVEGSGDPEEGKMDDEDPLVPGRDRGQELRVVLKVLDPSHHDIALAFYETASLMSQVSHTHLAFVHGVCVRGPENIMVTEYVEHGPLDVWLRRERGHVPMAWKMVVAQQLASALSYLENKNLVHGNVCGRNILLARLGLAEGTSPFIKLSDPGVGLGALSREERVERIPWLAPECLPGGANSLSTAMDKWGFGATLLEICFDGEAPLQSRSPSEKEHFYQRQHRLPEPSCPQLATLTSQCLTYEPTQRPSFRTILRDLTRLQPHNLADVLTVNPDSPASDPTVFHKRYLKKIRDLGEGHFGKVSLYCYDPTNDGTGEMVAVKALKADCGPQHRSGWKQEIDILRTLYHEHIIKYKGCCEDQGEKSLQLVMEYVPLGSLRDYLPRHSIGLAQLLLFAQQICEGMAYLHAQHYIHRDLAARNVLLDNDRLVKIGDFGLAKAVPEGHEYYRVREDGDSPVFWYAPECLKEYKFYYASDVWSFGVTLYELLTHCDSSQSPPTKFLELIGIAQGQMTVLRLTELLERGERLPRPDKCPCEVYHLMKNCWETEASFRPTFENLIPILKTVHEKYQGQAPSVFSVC

Row | SMILES | TYK2 MSD OCI-LY10 Dmax % (OCI-LY10 cells) | DC50 (OCI-LY10 cells) [nM] | TYK2 MSD OCI-LY10 Dmax % [1] | DC50 [1] [nM] | Dmax [1] [%]
1 | CNc1cc(N2CCc3c(CN4CCC(N5CC(C6CCN(C(=O)c7ccc(Cl)c(N8CCC(=O)NC8=O)c7)CC6)C5)C(F)(F)C4)cccc32)nn2c(C(=O)N[C@@H]3C[C@@H]3F)cnc12 (stereo partly shown) [I-791] | A (A (>90%)) | < 1 |  |  | 
2 | CNc1cc(N2CCc3c(-c4ccc(CN5CCC6(CCN(C(=O)c7cc(Cl)c(F)c(N8CCC(=O)NC8=O)c7)CC6)C(F)(F)C5)cn4)cccc32)nn2c(C(=O)N[C@@H]3C[C@@H]3F)cnc12 [I-792] | B (B (90 to >75%)) | < 10 |  |  | 
3 | CNc1cc(N2CCc3c(C#CCN4CCC(N5CC6(CN(C(=O)c7ccc(Cl)c(N8CCC(=O)NC8=O)c7)C6)C5)C(F)(F)C4)cccc32)nn2c(C(=O)N[C@@H]3C[C@@H]3F)cnc12 (stereo partly shown) [I-795] |  |  | A (A (>90%)) | < 1 | 
4 | CNc1cc(N2CCc3c(-c4ccc(CN5CC6(CCN(C(=O)c7cc(C)c(C)c(N8CCC(=O)NC8=O)c7)CC6(F)F)C5)cn4)cccc32)nn2c(C(=O)N[C@@H]3C[C@@H]3F)cnc12 [I-796] |  |  | A (A (>90%)) | < 1 | 
5 | CNc1cc(N2CCc3c(-c4ccc(CN5CCC6(CCN(C(=O)c7cc(C)c(C)c(N8CCC(=O)NC8=O)c7)CC6)C(F)(F)C5)cn4)cccc32)nn2c(C(=O)N[C@@H]3C[C@@H]3F)cnc12 [I-797] |  |  | A (A (>90%)) | < 1 | 
6 | CNc1cc(-c2cn(C3CCN(C(=O)c4ccc(Cl)c(N5CCC(=O)NC5=O)c4)CC3)c3ccccc23)nn2c(C(=O)N[C@@H]3C[C@@H]3F)cnc12 [I-798] |  |  | D (D (<50%)) | > 100 | 
7 | CNc1cc(N2CCc3c(-c4ncc(CN5CCC6(CCN(C(=O)c7cc(C)c(Cl)c(N8CCC(=O)NC8=O)c7)CC6)C(F)(F)C5)cn4)cccc32)nn2c(C(=O)N[C@@H]3C[C@@H]3F)cnc12 [I-799] |  |  | B (B (90 to >75%)) | < 10 | 
8 | CNc1cc(N2CCc3c(CC4CCC5(CC4)CCN(C4CCN(C(=O)c6ccc(Cl)c(N7CCC(=O)NC7=O)c6)CC4(F)F)CC5)cccc32)nn2c(C(=O)N[C@@H]3C[C@@H]3F)cnc12 (stereo partly shown) [I-800] |  |  | D (D (<50%)) | > 100 | 
9 | CNc1cc(N2CCc3c(CN4CCC(N5CCC6(CCN(C(=O)c7ccc(Cl)c(N8CCC(=O)NC8=O)c7)CC6)CC5)CC4)cccc32)nn2c(C(=O)N[C@@H]3C[C@@H]3F)cnc12 [I-802] |  |  | B (B (90 to >75%)) | < 10 | 
10 | CNc1cc(N2CCc3c(CN4CCC(N5CCC(N6CCN(C(=O)c7ccc(Cl)c(N8CCC(=O)NC8=O)c7)CC6)C5)C(F)(F)C4)cccc32)nn2c(C(=O)N[C@@H]3C[C@@H]3F)cnc12 (stereo partly shown) [I-803] |  |  | A (A (>90%)) | < 1 | 
11 | CNc1cc(N2CCc3c(CN4CCC(N5CCC6(CCN(C(=O)c7ccc(Cl)c(N8CCC(=O)NC8=O)c7)CC6)C5)C(F)(F)C4)cccc32)nn2c(C(=O)N[C@@H]3C[C@@H]3F)cnc12 (stereo partly shown) [I-805] |  |  | A (A (>90%)) | < 1 | 
12 | CNc1cc(N2CCc3c2cccc3C23CC(CN4CCC(N5CCC6(CCN(C(=O)c7ccc(Cl)c(N8CCC(=O)NC8=O)c7)CC6)CC5)C(F)(F)C4)(C2)C3)nn2c(C(=O)N[C@@H]3C[C@@H]3F)cnc12 (stereo partly shown) [I-807] |  |  | B (B (90 to >75%)) | < 10 | 
13 | CNc1cc(N2CCc3c(CN4CCC(N5CCC6(CCN(C(=O)c7ccc(Cl)c(N8CCC(=O)NC8=O)c7)CC6)CC5)C(F)(F)C4)cc(F)cc32)nn2c(C(=O)N[C@@H]3C[C@@H]3F)cnc12 (stereo partly shown) [I-808] |  |  | A (A (>90%)) | < 1 | 
14 | CNc1cc(N2CCc3c(CN4CCC(N5CCC6(CCN(C(=O)c7ccc(Cl)c(N8CCC(=O)NC8=O)c7)C6)C5)C(F)(F)C4)cccc32)nn2c(C(=O)N[C@@H]3C[C@@H]3F)cnc12 (stereo partly shown) [I-811] |  |  | A (A (>90%)) | < 1 | 
15 | CNc1cc(N2CCc3c(-c4ncc(CN5CC6(CCN(C(=O)c7cc(C)c(Cl)c(N8CCC(=O)NC8=O)c7)CC6(F)F)C5)cc4F)cccc32)nn2c(C(=O)N[C@@H]3C[C@@H]3F)cnc12 [I-813, 6-(4-(5-((7-(4-chloro-3-(2,4-dioxotetrahydropyrimidin-1(2H)-yl)-5-methylbenzoyl)-5,5-difluoro-2,7-diazaspiro[3.5]nonan-2-yl)methyl)-3-fluoropyridin-2-yl)indolin-1-yl)-N-((1R,2S)-2-fluorocyclopropyl)-8-(methylamino)imidazo[1,2-b]pyridazine-3-carboxamide] |  |  |  | < 1 | > 90
16 | CNc1cc(N2CCc3c(-c4ccc(CN5CCC6(CCN(C(=O)c7cc(C)c(Cl)c(N8CCC(=O)NC8=O)c7)CC6)C(F)(F)C5)cn4)cc(F)cc32)nn2c(C(=O)N[C@@H]3C[C@@H]3F)cnc12 [I-815] |  |  | B (B (90 to >75%)) | < 10 | 
17 | CNc1cc(N2CCc3c(-c4ccc(CN5CCC6(CCN(C(=O)c7cc(C)c(Cl)c(N8CCC(=O)NC8=O)c7)CC6)C(F)(F)C5)cn4)cccc32)nc2c(C(=O)N[C@@H]3C[C@@H]3F)cnn12 [I-816] |  |  | B (B (90 to >75%)) | < 10 | 
18 | CNc1cc(N2CCc3c(-c4ncc(CN5CCC6(CCN(C(=O)c7cc(C)c(Cl)c(N8CCC(=O)NC8=O)c7)CC6)C(F)(F)C5)cc4F)cccc32)nn2c(C(=O)N[C@@H]3C[C@@H]3F)cnc12 [I-818] |  |  | B (B (90 to >75%)) | < 10 | 

Row | SMILES | TYK2 MSD OCI-LY10 Dmax % (OCI-LY10 cells) | DC50 (OCI-LY10 cells) [nM] | TYK2 MSD OCI-LY10 Dmax % [1] | DC50 [1] [nM] | Dmax [1] [%]
19 | CNc1cc(N2CCc3c(CC4CCN(C5CCC6(CC5)CCN(C(=O)c5ccc(Cl)c(N7CCC(=O)NC7=O)c5)CC6)CC4)cccc32)nn2c(C(=O)N[C@@H]3C[C@@H]3F)cnc12 [I-820] |  |  | B (B (90 to >75%)) | < 10 | 
20 | CNc1cc(N2CCc3c2cccc3C23CC(CN4CCN(C5CCN(C(=O)c6ccc(Cl)c(N7CCC(=O)NC7=O)c6)CC5)CC4)(C2)C3)nn2c(C(=O)N[C@@H]3C[C@@H]3F)cnc12 [I-823] |  |  | A (A (>90%)) | < 1 | 
21 | CNc1cc(N2CCc3c(-c4ccc(CN5CCC6(CCN(C(=O)c7ccc(Cl)c(N8CCC(=O)NC8=O)c7)CC6)C(F)(F)C5)cn4)cccc32)nn2c(C(=O)NC3CCC3)cnc12 [I-824] |  |  | B (B (90 to >75%)) | < 10 | 
22 | CNc1cc(N2CCc3c2cccc3C23CC(CN4CCN(C5CCN(C(=O)c6ccc(Cl)c(N7CCC(=O)NC7=O)c6)CC5(F)F)CC4)(C2)C3)nn2c(C(=O)N[C@@H]3C[C@@H]3F)cnc12 (stereo partly shown) [I-832] |  |  | A (A (>90%)) | < 1 | 
23 | CNc1cc(N2CCc3c(CN4CCC5(CC4)CCN(C4CCN(C(=O)c6ccc(Cl)c(N7CCC(=O)NC7=O)c6)CC4)CC5(F)F)cccc32)nn2c(C(=O)N[C@@H]3C[C@@H]3F)cnc12 [I-833] |  |  | B (B (90 to >75%)) | < 10 | 
24 | CNc1cc(N2CCc3c(-c4ccc(CN5CCC6(CCN(C(=O)c7cc(Cl)cc(N8CCC(=O)NC8=O)c7)CC6)C(F)(F)C5)cn4)cccc32)nn2c(C(=O)N[C@@H]3C[C@@H]3F)cnc12 [I-835] |  |  | B (B (90 to >75%)) | < 10 | 
25 | CNc1cc(N2CCc3c(CN4CCC5(CCN(C6CCN(C(=O)c7ccc(Cl)c(N8CCC(=O)NC8=O)c7)CC6)CC5)C(F)(F)C4)cccc32)nn2c(C(=O)N[C@@H]3C[C@@H]3F)cnc12 [I-836] |  |  | B (B (90 to >75%)) | < 10 | 
26 | CNc1cc(N2CCc3c(CN4CCC(N5CC6(CCN(C(=O)c7ccc(Cl)c(N8CCC(=O)NC8=O)c7)CC6)C5)C(F)(F)C4)cccc32)nn2c(C(=O)N[C@@H]3C[C@@H]3F)cnc12 (stereo partly shown) [I-840] |  |  | A (A (>90%)) | < 1 | 
27 | CNc1cc(N2CCc3c(CN4CCC(N5CCC6(CCN(C(=O)c7cc(N8CCC(=O)NC8=O)c(Cl)cc7F)CC6)CC5)C(F)(F)C4)cccc32)nn2c(C(=O)N[C@@H]3C[C@@H]3F)cnc12 (stereo partly shown) [I-841] |  |  | A (A (>90%)) | < 1 | 
28 | COC1(c2cc(C)cc(-c3cn(C4CCN(CC5CCN(c6ccc(NC7CCC(=O)NC7=O)c(F)c6)CC5)CC4)c4cnc(NC(C)=O)cc34)n2)CCOC1 (stereo not shown) [I-842] |  |  | A (A (>90%)) | < 1 | 
29 | CNc1cc(N2CCc3c(CN4CCC(N5CCC6(CCN(C(=O)c7cc(F)c(C)c(N8CCC(=O)NC8=O)c7)CC6)CC5)C(F)(F)C4)cccc32)nn2c(C(=O)N[C@@H]3C[C@@H]3F)cnc12 (stereo partly shown) [I-843] |  |  | A (A (>90%)) | < 1 | 
30 | CNc1cc(N2CCc3c(CN4CCC(N5CCC6(CCN(Cc7ccc(Cl)c(N8CCC(=O)NC8=O)c7)CC6)CC5)C(F)(F)C4)cccc32)nn2c(C(=O)N[C@@H]3C[C@@H]3F)cnc12 (stereo partly shown) [I-844] |  |  | B (B (90 to >75%)) | < 10 | 
31 | CNc1cc(N2CCc3c(CN4CCC(N5CCC6(CCN(C(=O)c7cc(N8CCC(=O)NC8=O)c(C)cc7Cl)CC6)CC5)C(F)(F)C4)cccc32)nn2c(C(=O)N[C@@H]3C[C@@H]3F)cnc12 (stereo partly shown) [I-845] |  |  | A (A (>90%)) | < 1 | 
32 | CNc1cc(N2CCc3c(C#CCN4CCN(C5CCN(C(=O)c6ccc(Cl)c(N7CCC(=O)NC7=O)c6)CC5(F)F)CC4)cccc32)nn2c(C(=O)NC3CC3F)cnc12 (stereo not shown) [I-846] |  |  | A (A (>90%)) | < 1 | 
33 | CNc1cc(N2CCc3c(-c4ccc(CN5CCC6(CC5)CN(C(=O)c5ccc(Cl)c(N7CCC(=O)NC7=O)c5)CC6(F)F)cn4)cccc32)nn2c(C(=O)N[C@@H]3C[C@@H]3F)cnc12 [I-847] |  |  | A (A (>90%)) | < 1 | 
34 | COC1(c2cc(-c3ccc(CN4CCC5(CC4)CCN(C(=O)c4ccc(Cl)c(N6CCC(=O)NC6=O)c4)CC5)cn3)cc(-c3cn(C)c4cnc(NC(C)=O)cc34)n2)CCOC1 (stereo not shown) [I-848] |  |  | A (A (>90%)) | < 1 | 
35 | CNc1cc(N2CCc3c(-c4ccc(CN5CC(F)(F)C6(CCN(C(=O)c7ccc(Cl)c(N8CCC(=O)NC8=O)c7)CC6)C5)cn4)cccc32)nn2c(C(=O)N[C@@H]3C[C@@H]3F)cnc12 [I-849] |  |  | B (B (90 to >75%)) | < 10 | 
